Data published in ChEMBL document CHEMBL4507264, “Data for DCP probe BAY-7598” (2021).

What was measured:
[1] = target: Serine/threonine-protein kinase N2 (Homo sapiens) (UniProt Q16513); settings: Compound concentration 1000.0 nM
[2] = target: Mitogen-activated protein kinase kinase kinase 12 (Homo sapiens) (UniProt Q12852); settings: Compound concentration 1000.0 nM
[3] = target: 5'-AMP-activated protein kinase catalytic subunit alpha-2 (Homo sapiens) (UniProt P54646); settings: Compound concentration 1000.0 nM
[4] = target: Ephrin type-B receptor 1 (Homo sapiens) (UniProt P54762); settings: Compound concentration 1000.0 nM
[5] = target: Serine/threonine-protein kinase DCLK1 (Homo sapiens) (UniProt O15075); settings: Compound concentration 1000.0 nM
[6] = target: Tyrosine-protein kinase SYK (Homo sapiens) (UniProt P43405); settings: Compound concentration 1000.0 nM
[7] = target: Tyrosine-protein kinase TXK (Homo sapiens) (UniProt P42681); settings: Compound concentration 1000.0 nM
[8] = target: Serine/threonine-protein kinase MARK2 (Homo sapiens) (UniProt Q7KZI7); settings: Compound concentration 1000.0 nM
[9] = target: Sodium-dependent serotonin transporter (Homo sapiens) (UniProt P31645); settings: Compound concentration 10.0 uM
[10] = target: Membrane-associated tyrosine- and threonine-specific cdc2-inhibitory kinase (Homo sapiens) (UniProt Q99640); settings: Compound concentration 1000.0 nM
[11] = test system: Phosphatidylinositol 4,5-bisphosphate 3-kinase catalytic subunit alpha isoform (Homo sapiens), P42336 [H1047Y]; settings: Compound concentration 1000.0 nM
[12] = target: Casein kinase I isoform gamma-1 (Homo sapiens) (UniProt Q9HCP0); settings: Compound concentration 1000.0 nM
[13] = target: Mast/stem cell growth factor receptor Kit (Homo sapiens) (UniProt P10721); settings: Compound concentration 1000.0 nM
[14] = target: Phosphatidylinositol 5-phosphate 4-kinase type-2 beta (Homo sapiens) (UniProt P78356); settings: Compound concentration 1000.0 nM
[15] = target: Ephrin type-A receptor 2 (Homo sapiens) (UniProt P29317); settings: Compound concentration 1000.0 nM
[16] = target: NT-3 growth factor receptor (Homo sapiens) (UniProt Q16288); settings: Compound concentration 1000.0 nM
[17] = target: Cyclin-dependent kinase 18 (Homo sapiens) (UniProt Q07002); settings: Compound concentration 1000.0 nM
[18] = target: MAP/microtubule affinity-regulating kinase 4 (Homo sapiens) (UniProt Q96L34); settings: Compound concentration 1000.0 nM
[19] = target: Serine/threonine-protein kinase WNK2 (Homo sapiens) (UniProt Q9Y3S1); settings: Compound concentration 1000.0 nM
[20] = target: Serine/threonine-protein kinase 35 (Homo sapiens) (UniProt Q8TDR2); settings: Compound concentration 1000.0 nM
[21] = target: T1, Muscarinic acetylcholine receptor M2 (Homo sapiens) (UniProt P08172); settings: Compound concentration 10.0 uM
T1 sequence (whole entry): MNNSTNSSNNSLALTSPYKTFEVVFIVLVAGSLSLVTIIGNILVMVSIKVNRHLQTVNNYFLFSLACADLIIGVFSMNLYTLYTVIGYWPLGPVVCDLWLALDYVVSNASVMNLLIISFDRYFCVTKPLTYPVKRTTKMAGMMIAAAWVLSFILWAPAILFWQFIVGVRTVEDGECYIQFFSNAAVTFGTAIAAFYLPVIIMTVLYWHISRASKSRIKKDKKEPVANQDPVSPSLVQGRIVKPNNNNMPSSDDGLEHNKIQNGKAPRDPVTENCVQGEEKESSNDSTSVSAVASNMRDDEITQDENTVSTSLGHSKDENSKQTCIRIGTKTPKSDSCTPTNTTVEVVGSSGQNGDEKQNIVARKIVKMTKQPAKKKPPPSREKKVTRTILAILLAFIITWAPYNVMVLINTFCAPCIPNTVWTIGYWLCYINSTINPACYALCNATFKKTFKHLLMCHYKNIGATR

[22] = target: Ribosomal protein S6 kinase alpha-5 (Homo sapiens) (UniProt O75582); settings: Compound concentration 1000.0 nM
[23] = test system: Epidermal growth factor receptor (Homo sapiens), P00533 [UNDEFINED MUTATION]; settings: Compound concentration 1000.0 nM
[24] = target: D(2) dopamine receptor (Homo sapiens) (UniProt P14416); settings: Compound concentration 10.0 uM
[25] = test system: Leucine-rich repeat serine/threonine-protein kinase 2 (Homo sapiens), Q5S007 [G2019S]; settings: Compound concentration 1000.0 nM
[26] = target: Fibroblast growth factor receptor 4 (Homo sapiens) (UniProt P22455); settings: Compound concentration 1000.0 nM
[27] = target: Fibroblast growth factor receptor 1 (Homo sapiens) (UniProt P11362); settings: Compound concentration 1000.0 nM
[28] = target: Activin receptor type-1 (Homo sapiens) (UniProt Q04771); settings: Compound concentration 1000.0 nM
[29] = test system: Phosphatidylinositol 4,5-bisphosphate 3-kinase catalytic subunit alpha isoform (Homo sapiens), P42336 [Q546K]; settings: Compound concentration 1000.0 nM
[30] = test system: Epidermal growth factor receptor (Homo sapiens), P00533 [G719C]; settings: Compound concentration 1000.0 nM
[31] = target: Receptor-interacting serine/threonine-protein kinase 2 (Homo sapiens) (UniProt O43353); settings: Compound concentration 1000.0 nM
[32] = target: 5-hydroxytryptamine receptor 2C (Homo sapiens) (UniProt P28335); settings: Compound concentration 10.0 uM
[33] = test system: Epidermal growth factor receptor (Homo sapiens), P00533 [L861Q]; settings: Compound concentration 1000.0 nM
[34] = target: TGF-beta receptor type-2 (Homo sapiens) (UniProt P37173); settings: Compound concentration 1000.0 nM
[35] = target: Calcium/calmodulin-dependent protein kinase type II subunit beta (Homo sapiens) (UniProt Q13554); settings: Compound concentration 1000.0 nM
[36] = target: Transient receptor potential cation channel subfamily M member 6 (Homo sapiens) (UniProt Q9BX84); settings: Compound concentration 1000.0 nM
[37] = target: cGMP-dependent protein kinase 1 (Homo sapiens) (UniProt Q13976); settings: Compound concentration 1000.0 nM
[38] = target: Cyclin-dependent kinase 11A (Homo sapiens) (UniProt Q9UQ88); settings: Compound concentration 1000.0 nM
[39] = target: Aurora kinase A (Homo sapiens) (UniProt O14965); settings: Compound concentration 1000.0 nM

5-hydroxytryptamine receptor 2C (Homo sapiens), sequence (P28335 whole entry): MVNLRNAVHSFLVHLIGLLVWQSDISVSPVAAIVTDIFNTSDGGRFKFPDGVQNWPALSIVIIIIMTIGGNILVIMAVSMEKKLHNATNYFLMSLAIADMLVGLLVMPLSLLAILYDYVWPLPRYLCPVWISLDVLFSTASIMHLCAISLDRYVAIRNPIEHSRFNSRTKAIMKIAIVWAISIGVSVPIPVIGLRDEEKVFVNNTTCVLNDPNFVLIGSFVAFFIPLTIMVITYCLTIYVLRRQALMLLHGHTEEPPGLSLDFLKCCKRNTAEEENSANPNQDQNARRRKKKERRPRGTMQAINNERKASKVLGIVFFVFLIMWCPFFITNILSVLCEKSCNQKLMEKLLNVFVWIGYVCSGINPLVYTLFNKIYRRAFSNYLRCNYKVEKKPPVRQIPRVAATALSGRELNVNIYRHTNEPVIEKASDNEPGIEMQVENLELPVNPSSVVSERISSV
NT-3 growth factor receptor (Homo sapiens), sequence (Q16288 32-839 limits assumed): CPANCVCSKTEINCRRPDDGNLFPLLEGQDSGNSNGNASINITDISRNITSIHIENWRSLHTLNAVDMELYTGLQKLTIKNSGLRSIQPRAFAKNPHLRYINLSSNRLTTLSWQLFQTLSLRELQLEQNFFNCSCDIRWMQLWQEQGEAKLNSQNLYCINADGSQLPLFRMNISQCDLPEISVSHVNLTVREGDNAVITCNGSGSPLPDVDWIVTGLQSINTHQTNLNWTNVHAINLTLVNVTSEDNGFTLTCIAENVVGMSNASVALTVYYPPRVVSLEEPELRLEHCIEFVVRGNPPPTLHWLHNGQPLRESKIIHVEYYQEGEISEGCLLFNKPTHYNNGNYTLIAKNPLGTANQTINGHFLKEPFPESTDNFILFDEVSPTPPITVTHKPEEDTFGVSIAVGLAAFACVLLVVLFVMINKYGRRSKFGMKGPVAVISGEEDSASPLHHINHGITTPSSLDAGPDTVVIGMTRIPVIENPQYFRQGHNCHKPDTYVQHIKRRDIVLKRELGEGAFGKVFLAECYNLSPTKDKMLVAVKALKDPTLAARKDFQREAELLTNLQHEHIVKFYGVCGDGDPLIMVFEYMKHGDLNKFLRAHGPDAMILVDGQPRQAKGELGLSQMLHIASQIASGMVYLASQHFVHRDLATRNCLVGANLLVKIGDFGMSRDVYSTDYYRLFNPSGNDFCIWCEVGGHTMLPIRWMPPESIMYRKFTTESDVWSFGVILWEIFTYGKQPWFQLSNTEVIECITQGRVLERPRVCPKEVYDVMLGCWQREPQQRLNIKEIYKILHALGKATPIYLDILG
Leucine-rich repeat serine/threonine-protein kinase 2 (Homo sapiens), Q5S007 [G2019S], sequence (Q5S007 whole entry G2019S): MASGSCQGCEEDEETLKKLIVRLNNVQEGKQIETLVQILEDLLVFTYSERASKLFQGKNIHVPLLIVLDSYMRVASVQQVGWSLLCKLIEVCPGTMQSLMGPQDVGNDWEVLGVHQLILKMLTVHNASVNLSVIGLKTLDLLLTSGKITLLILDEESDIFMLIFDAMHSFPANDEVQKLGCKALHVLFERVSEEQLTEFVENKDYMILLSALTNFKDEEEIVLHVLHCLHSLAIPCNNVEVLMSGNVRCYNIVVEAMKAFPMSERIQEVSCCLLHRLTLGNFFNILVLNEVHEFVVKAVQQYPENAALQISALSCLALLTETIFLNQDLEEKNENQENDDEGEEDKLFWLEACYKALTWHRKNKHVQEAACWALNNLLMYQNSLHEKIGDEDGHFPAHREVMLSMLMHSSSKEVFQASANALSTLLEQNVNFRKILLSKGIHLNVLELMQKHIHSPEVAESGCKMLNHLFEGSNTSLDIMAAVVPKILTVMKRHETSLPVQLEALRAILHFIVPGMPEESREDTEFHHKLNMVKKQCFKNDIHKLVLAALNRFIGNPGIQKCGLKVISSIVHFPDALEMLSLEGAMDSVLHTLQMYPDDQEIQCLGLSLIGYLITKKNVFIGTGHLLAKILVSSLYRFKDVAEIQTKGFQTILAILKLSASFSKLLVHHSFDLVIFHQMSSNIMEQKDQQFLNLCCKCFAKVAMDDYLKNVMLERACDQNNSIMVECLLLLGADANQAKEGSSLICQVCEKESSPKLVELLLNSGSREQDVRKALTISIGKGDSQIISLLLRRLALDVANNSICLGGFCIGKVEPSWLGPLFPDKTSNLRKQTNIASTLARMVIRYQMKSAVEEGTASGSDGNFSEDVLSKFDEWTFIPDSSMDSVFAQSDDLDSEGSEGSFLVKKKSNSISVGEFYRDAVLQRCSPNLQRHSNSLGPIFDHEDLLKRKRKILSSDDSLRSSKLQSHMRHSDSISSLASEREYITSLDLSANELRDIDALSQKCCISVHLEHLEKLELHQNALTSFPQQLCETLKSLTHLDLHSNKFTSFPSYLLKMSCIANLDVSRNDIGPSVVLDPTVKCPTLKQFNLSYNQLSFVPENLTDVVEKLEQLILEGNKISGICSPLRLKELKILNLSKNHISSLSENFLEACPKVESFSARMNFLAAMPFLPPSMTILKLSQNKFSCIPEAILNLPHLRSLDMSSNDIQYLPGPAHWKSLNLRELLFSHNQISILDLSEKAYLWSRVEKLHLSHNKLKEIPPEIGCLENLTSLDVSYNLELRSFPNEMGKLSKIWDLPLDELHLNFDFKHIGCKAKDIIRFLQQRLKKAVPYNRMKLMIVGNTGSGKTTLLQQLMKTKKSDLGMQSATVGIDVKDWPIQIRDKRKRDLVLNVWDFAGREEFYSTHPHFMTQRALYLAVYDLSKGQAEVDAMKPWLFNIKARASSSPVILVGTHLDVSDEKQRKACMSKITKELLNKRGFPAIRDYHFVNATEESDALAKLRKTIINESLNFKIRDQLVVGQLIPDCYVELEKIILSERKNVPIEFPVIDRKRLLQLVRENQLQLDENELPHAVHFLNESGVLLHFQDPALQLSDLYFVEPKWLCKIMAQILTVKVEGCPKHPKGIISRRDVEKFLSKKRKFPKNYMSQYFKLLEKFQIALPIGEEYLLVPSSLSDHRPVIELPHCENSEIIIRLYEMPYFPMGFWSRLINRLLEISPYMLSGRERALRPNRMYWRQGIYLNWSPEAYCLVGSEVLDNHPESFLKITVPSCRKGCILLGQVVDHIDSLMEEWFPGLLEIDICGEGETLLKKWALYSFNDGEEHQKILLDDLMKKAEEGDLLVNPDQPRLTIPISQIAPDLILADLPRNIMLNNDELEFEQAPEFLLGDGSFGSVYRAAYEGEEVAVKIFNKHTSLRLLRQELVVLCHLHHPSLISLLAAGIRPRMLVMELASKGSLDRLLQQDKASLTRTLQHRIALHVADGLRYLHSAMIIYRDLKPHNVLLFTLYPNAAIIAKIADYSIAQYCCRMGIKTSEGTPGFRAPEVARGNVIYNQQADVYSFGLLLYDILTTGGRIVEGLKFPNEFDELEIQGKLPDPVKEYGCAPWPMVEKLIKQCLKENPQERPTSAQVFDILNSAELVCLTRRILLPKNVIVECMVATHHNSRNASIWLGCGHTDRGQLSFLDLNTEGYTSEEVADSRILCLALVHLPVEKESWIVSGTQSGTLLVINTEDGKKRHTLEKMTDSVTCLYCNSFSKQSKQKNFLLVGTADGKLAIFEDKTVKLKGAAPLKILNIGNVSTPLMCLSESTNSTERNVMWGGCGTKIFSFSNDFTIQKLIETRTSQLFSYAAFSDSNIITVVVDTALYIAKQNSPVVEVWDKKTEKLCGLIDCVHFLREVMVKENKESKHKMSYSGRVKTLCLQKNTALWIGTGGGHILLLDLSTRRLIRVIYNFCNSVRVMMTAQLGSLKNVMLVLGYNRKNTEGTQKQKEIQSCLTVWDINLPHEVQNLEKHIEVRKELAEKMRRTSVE
Phosphatidylinositol 4,5-bisphosphate 3-kinase catalytic subunit alpha isoform (Homo sapiens), P42336 [Q546K], sequence (P42336 whole entry Q546K, canonical isoform): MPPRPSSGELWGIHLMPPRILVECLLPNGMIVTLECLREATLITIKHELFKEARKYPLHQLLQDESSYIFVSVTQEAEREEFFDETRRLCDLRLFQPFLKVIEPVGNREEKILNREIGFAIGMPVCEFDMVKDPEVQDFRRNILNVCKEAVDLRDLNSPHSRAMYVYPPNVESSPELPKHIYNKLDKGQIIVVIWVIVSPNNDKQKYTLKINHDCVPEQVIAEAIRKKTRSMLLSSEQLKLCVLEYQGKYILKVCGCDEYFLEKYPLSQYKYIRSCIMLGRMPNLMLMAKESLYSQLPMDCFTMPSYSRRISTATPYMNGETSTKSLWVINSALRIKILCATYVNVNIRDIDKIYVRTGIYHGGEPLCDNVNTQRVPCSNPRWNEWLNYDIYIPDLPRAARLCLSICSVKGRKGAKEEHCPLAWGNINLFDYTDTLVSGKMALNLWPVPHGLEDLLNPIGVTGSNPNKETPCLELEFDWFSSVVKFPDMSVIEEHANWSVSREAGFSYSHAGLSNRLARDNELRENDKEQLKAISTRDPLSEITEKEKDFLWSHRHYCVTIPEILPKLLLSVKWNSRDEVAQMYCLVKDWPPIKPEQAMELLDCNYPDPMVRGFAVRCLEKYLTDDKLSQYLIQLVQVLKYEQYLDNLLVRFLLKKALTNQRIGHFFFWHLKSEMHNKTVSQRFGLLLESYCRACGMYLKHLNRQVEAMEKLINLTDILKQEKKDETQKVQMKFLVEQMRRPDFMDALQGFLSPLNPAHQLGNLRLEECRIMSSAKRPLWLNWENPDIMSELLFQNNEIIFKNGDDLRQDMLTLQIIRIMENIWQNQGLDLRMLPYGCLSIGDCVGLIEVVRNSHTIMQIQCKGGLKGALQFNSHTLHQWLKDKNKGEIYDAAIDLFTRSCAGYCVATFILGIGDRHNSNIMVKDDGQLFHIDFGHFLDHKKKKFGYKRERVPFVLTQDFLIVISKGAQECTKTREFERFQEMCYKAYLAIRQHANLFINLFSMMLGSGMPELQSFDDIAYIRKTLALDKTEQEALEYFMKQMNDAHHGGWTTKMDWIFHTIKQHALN
Phosphatidylinositol 4,5-bisphosphate 3-kinase catalytic subunit alpha isoform (Homo sapiens), P42336 [H1047Y], sequence (P42336 whole entry H1047Y, canonical isoform): as the sequence (P42336 whole entry Q546K, canonical isoform) above, with K546Q, H1047Y counted along it

O=C(O)[C@@H]1[C@@H](Cn2nnc3ccccc3c2=O)CC[C@H]1C(=O)c1ccc(OCCC2CCOCC2)cc1 [BAY-694]
inactive: residual activity [1] 100% | residual activity [2] 98% | residual activity [3] 100% | residual activity [4] 100% | residual activity [5] 100% | residual activity [6] 100% | residual activity [7] 94% | residual activity [8] 100% | inhibition [9] 10.2% | residual activity [10] 82% | residual activity [11] 94% | residual activity [12] 99% | residual activity [13] 100% | residual activity [14] 81% | residual activity [15] 100% | residual activity [16] 86% | residual activity [17] 90% | residual activity [18] 100% | residual activity [19] 82% | residual activity [20] 100% | inhibition [21] -2.32% | residual activity [22] 100% | residual activity [23] 58% | inhibition [24] -5.06% | residual activity [25] 100% | residual activity [26] 99% | residual activity [27] 100% | residual activity [28] 100% | residual activity [29] 86% | residual activity [30] 90% | residual activity [31] 97% | inhibition [32] 21% | residual activity [33] 58% | residual activity [34] 100% | residual activity [35] 100% | residual activity [36] 96% | residual activity [37] 100% | residual activity [38] 91% | residual activity [39] 100%

O=C(O)[C@H]1[C@H](Cn2nnc3ccccc3c2=O)CC[C@@H]1C(=O)c1ccc(OCCC2CCOCC2)cc1 [BAY-7598]
inactive: residual activity [1] 76% | residual activity [2] 88% | residual activity [3] 100% | residual activity [4] 100% | residual activity [5] 73% | residual activity [6] 76% | residual activity [7] 100% | residual activity [8] 100% | inhibition [9] 13.9% | residual activity [10] 96% | residual activity [11] 88% | residual activity [12] 94% | residual activity [13] 65% | residual activity [14] 84% | residual activity [15] 93% | residual activity [16] 82% | residual activity [17] 84% | residual activity [18] 96% | residual activity [19] 99% | residual activity [20] 100% | inhibition [21] 1.41% | residual activity [22] 100% | residual activity [23] 65% | inhibition [24] 30.3% | residual activity [25] 100% | residual activity [26] 100% | residual activity [27] 98% | residual activity [28] 100% | residual activity [29] 97% | residual activity [30] 81% | residual activity [31] 100% | inhibition [32] 22.4% | residual activity [33] 53% | residual activity [34] 100% | residual activity [35] 100% | residual activity [36] 100% | residual activity [37] 75% | residual activity [38] 92% | residual activity [39] 97%
